Test results: US5631263A, “Use of delta opioid receptor antagonists to treat immunoregulatory disorders” (Minneapolis Medical Research Foundation, priority 1995, dated 1997)
Structures can show the parent of a compound that is named as a salt.

Tests used:
δ opioid receptor = molecular target: T1, δ opioid receptor (Mus musculus, UniProt P32300); assay: antagonism of DADLE on MVD preparations (Example 7); format: cell-based; details: for IC50 ratio (DADLE): MVD, 100 nM of each compound, NTI = 20 nM, 15 min
T1 construct: Both vasa deferentia were dissected out of mice; from tissue; host or cells: mouse vas deferens (isolated, electrically stimulated)
Method: 2. Mouse Vas Deferens (MVD). […] The organ bath was maintained at 37° C.
Concentration-response curves were obtained in the absence (control) and the presence of the antagonist are expressed as IC50 values. […] Therefore, a high IC50 ratio represents a correspondingly high degree of antagonism at a particular receptor. […] Therefore, a low Ke represents a correspondingly high degree of binding at a particular receptor.

μ opioid receptor = μ opioid receptor (Cavia porcellus, UniProt A0ACM8Q262); assay: antagonism of morphine in the GPI (Example 7); format: cell-based, guinea pig; details: morphine as agonist, read-out: Ke, μ (Table VII)
Method: 1. Guinea Pig Ileal Longitudinal Muscle (GPI). Ilea from guinea pigs were taken approximately 10 cm from the ileocaecal junction, and a strip of longitudinal muscle with the myenteric plexus attached was prepared by method of Rang et al., Brit. J. Pharmacol., 22, 356 (1964), the disclosure of which is incorporated by reference herein. A 1 cm portion of this strip was then mounted between two platinum electrodes placed in a 10 ml organ bath and connected to an isometric transducer. Contractions were recorded on a polygraph. […] The organ bath was maintained at 36°-37° C. The longitudinal muscle strip was allowed to equilibrate with continuous stimulation for a minimum of 90 min.

guinea pig ileum (GPI) = details: standard result; cited from earlier work
mu opioid receptors = molecular target: mu opioid receptors; set-up: key to Ke, M: No agonist antagonism observed; details: GPI, cited from earlier work; for Kb: read-out: Ke, M (morphine), agonist morphine, antagonist 100 or 200 nM, 15 min
kappa opioid receptors = molecular target: kappa opioid receptors; set-up: key to Ke, EK: No agonist antagonism observed; details: GPI, cited from earlier work; for Kb: agonist ethylketazocine, antagonist 100 or 200 nM, 15 min, read-out: Ke, EK
delta opioid receptors [1] = molecular target: T2, delta opioid receptors (Mus musculus, UniProt P32300); assay: antagonism of DADLE in the mouse vas deferens (MVD) preparation; details: compared with 1 or its congeners
Method: Mouse Vas Deferens (MVD). […] Both vasa deferentia were dissected out of mice and mounted singly through two platinum ring electrodes in a 10 ml organ bath. The bath contained Krebs bicarbonate solution that was continuously bubbled with 95% O2 and 5% CO2. The organ bath was maintained at 37° C. The tissue was attached to an isometric transducer and stimulated transmurally with rectangular pulses (0.1 Mz, 1 ms duration, supramaximal voltage). Drugs were added cumulatively to the bath in 10- to 50-μL amounts and washed out after noting their maximum effect.
The compounds were tested in vitro on the mouse vas deferens (MVD) and guinea pig ileum (GPI) preparations. […] The IC50 value was divided by the control IC50 value in the same tissue, and this IC50 ratio (DR) was employed to calculate the Ke value using the equation Ke=[antagonist]/(DR-1).

delta opioid receptors [2] = molecular target: T2, delta opioid receptors; set-up: key: No agonist antagonism observed; details: MVD; compound 7 tested at 5 nM or less; cited from earlier work
[3] = tested on: mouse vas deferens (MVD) and guinea pig ileum (GPI) preparations; details: cited from earlier work
[4] = compound 7 tested at 5 nM or less

T2 sequence (P32300 whole entry): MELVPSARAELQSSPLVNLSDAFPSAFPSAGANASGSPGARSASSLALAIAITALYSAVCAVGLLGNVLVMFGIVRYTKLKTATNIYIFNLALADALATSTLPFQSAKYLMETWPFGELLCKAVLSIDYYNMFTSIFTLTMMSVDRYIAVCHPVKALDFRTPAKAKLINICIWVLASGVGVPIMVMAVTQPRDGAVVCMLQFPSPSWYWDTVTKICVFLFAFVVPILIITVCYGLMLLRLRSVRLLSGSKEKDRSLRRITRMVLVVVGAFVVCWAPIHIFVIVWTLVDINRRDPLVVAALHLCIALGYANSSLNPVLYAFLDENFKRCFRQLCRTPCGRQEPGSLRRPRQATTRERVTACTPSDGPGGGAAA
T1 sequence (P32300 whole entry): as above
Chain of μ opioid receptor (A0ACM8Q262 1-400): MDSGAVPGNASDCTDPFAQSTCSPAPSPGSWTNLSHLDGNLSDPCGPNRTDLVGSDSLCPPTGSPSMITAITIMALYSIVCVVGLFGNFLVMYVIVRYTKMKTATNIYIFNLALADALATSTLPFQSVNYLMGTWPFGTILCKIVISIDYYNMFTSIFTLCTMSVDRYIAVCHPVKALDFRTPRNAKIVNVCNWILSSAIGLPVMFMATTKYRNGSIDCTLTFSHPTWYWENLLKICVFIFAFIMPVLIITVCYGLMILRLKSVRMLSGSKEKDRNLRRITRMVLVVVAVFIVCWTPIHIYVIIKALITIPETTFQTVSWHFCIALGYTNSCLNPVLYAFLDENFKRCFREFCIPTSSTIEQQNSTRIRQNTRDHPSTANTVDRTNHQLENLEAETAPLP

Row | Compound | Kb (δ opioid receptor) | IC50 ratio (DADLE) (δ opioid receptor) | Kb (mu opioid receptors) | Kb (kappa opioid receptors) | also measured
1 | O=C1/C(=C/c2ccc3ccccc3c2)C[C@@]2(O)[C@H]3Cc4ccc(O)c5c4[C@@]2(CCN3CC2CC2)[C@H]1O5 [IIm] | 0.0094 µM | 11.6 |  |  | 
2 | O=C1CC[C@@]2(O)[C@H]3Cc4ccc(O)c5c4[C@@]2(CCN3CC2CC2)[C@H]1O5 [Naltrexone, naltrexone, reference compound] |  |  |  |  | Kb (μ opioid receptor): 0.001 µM; block of morphine's effects (guinea pig ileum (GPI)): block morphine's effects
3 | Oc1ccc2c3c1O[C@H]1c4nc5ccccc5cc4C[C@@]4(O)[C@@H](C2)N(CC2CC2)CC[C@]314 [Compound 17] |  |  | 0.0113 µM | 0.0163 µM | delta antagonist potency / selectivity in words (delta opioid receptors [1]): A similar relationship was observed
4 | Oc1ccc2c3c1O[C@H]1c4[nH]c5cccc(F)c5c4C[C@@]4(O)[C@@H](C2)N(CC2CC2)CC[C@]314 [Compound 10] |  |  | > 0.125 µM | > 0.17 µM | 
5 | Oc1ccc2c3c1O[C@H]1c4[nH]c5ccc(F)cc5c4C[C@@]4(O)[C@@H](C2)N(CC2CC2)CC[C@]314 [Compound 3] |  |  | 0.0617 µM | 0.0462 µM | 
6 | O=C1/C(=C/c2ccccc2Cl)C[C@@]2(O)[C@H]3Cc4ccc(O)c5c4[C@@]2(CCN3CC2CC2)[C@H]1O5 [IIj] | 0.00076 µM | 130 |  |  | 
7 | Cn1c2c(c3ccccc31)C[C@@]1(O)[C@H]3Cc4ccc(O)c5c4[C@@]1(CCN3CC1CC1)[C@H]2O5 [Compound 2] |  |  | 0.0125 µM | 0.0222 µM | 
8 | O=[N+]([O-])c1ccc2[nH]c3c(c2c1)C[C@@]1(O)[C@H]2Cc4ccc(O)c5c4[C@@]1(CCN2CC1CC1)[C@H]3O5 [Compound 6] |  |  | 0.092 µM | ≥ 0.2 µM | 
9 | CN1CC[C@]23c4c5ccc(O)c4O[C@H]2c2[nH]c4ccccc4c2C[C@@]3(O)[C@H]1C5 [Compound 7] |  |  |  |  | Ke, DADLE (delta opioid receptors [2]): e; Ke, M (mu opioid receptors; [4]): e; Ke, EK (kappa opioid receptors; [4]): e; antagonist activity of compound 7 ([3]; at 5 nM): inactive; agonist activity ([3]; in words): partial agonist activity
10 | COc1ccc(/C=C2\C[C@@]3(O)[C@H]4Cc5ccc(O)c6c5[C@@]3(CCN4CC3CC3)[C@@H](O6)C2=O)cc1 [IIc] | 0.022 µM | 5.52 |  |  | 
11 | Oc1ccc2c3c1O[C@H]1c4nc5ccccc5nc4C[C@@]4(O)[C@@H](C2)N(CC2CC2)CC[C@]314 [Compound 16] |  |  | 0.0061 µM | 0.0134 µM | delta antagonist potency / selectivity in words (delta opioid receptors [1]): A similar relationship was observed
12 | Cc1cccc2c3c([nH]c12)[C@@H]1Oc2c(O)ccc4c2[C@@]12CCN(CC1CC1)[C@H](C4)[C@]2(O)C3 [Compound 13] |  |  | 0.0191 µM | > 0.33 µM | 
13 | O=C1/C(=C/c2cccc([N+](=O)[O-])c2)C[C@@]2(O)[C@H]3Cc4ccc(O)c5c4[C@@]2(CCN3CC2CC2)[C@H]1O5 [IIb] | 0.02 µM | 5.97 |  |  | 
14 | Oc1ccc2[nH]c3c(c2c1)C[C@@]1(O)[C@H]2Cc4ccc(O)c5c4[C@@]1(CCN2CC1CC1)[C@H]3O5 [Compound 9] |  |  | 0.0272 µM | 0.0685 µM | 
15 | O=C1/C(=C/c2ccc([N+](=O)[O-])cc2)C[C@@]2(O)[C@H]3Cc4ccc(O)c5c4[C@@]2(CCN3CC2CC2)[C@H]1O5 [IIa, E-7-(4-Nitrobenzylideno)naltrexone hydrochloride] | 0.111 µM | 1.90 |  |  | 
16 | Cc1ccc2[nH]c3c(c2c1)C[C@@]1(O)[C@H]2Cc4ccc(O)c5c4[C@@]1(CCN2CC1CC1)[C@H]3O5 [Compound 5] |  |  | > 0.16 µM | > 0.25 µM | 
17 | COc1ccccc1/C=C1\C[C@@]2(O)[C@H]3Cc4ccc(O)c5c4[C@@]2(CCN3CC2CC2)[C@@H](O5)C1=O [IIe] | 0.00084 µM | 120 |  |  | 
18 | O=C1/C(=C/c2cccc(F)c2)C[C@@]2(O)[C@H]3Cc4ccc(O)c5c4[C@@]2(CCN3CC2CC2)[C@H]1O5 [IIh] | 0.014 µM | 7.87 |  |  | 
19 | Oc1ccc2c3c1O[C@H]1c4[nH]c5c(F)cccc5c4C[C@@]4(O)[C@@H](C2)N(CC2CC2)CC[C@]314 [Compound 11] |  |  | 0.0053 µM | > 0.33 µM | 
20 | COc1ccc2[nH]c3c(c2c1)C[C@@]1(O)[C@H]2Cc4ccc(O)c5c4[C@@]1(CCN2CC1CC1)[C@H]3O5 [Compound 4] |  |  | 0.063 µM | 0.0126 µM | 
21 | O=C1/C(=C/c2ccccc2F)C[C@@]2(O)[C@H]3Cc4ccc(O)c5c4[C@@]2(CCN3CC2CC2)[C@H]1O5 [IIi] | 0.02 µM | 6.01 |  |  | 
22 | O=C1/C(=C/c2ccc(F)cc2)C[C@@]2(O)[C@H]3Cc4ccc(O)c5c4[C@@]2(CCN3CC2CC2)[C@H]1O5 [IIg] | 0.077 µM | 2.29 |  |  | 
23 | Oc1ccc2c3c1O[C@H]1c4oc5ccccc5c4C[C@@]4(O)[C@@H](C2)N(CC2CC2)CC[C@]314 [Compound 8, (17-cyclopropylmethyl)-6,7-dehydro-3,14β-dihydroxy-4,5α-epoxy-6,7-2',3'-benzo[b]furanomorphinan] |  |  | 0.0308 µM | 0.0508 µM | delta antagonist potency / selectivity in words (delta opioid receptors [1]): less potent and less selective than 1 as a delta antagonist, nevertheless retains substantial delta antagonist activity
24 | O=C1/C(=C/c2cccc3ccccc23)C[C@@]2(O)[C@H]3Cc4ccc(O)c5c4[C@@]2(CCN3CC2CC2)[C@H]1O5 [IIl] | 0.0085 µM | 12.7 |  |  | 
25 | COc1cccc2c3c([nH]c12)[C@@H]1Oc2c(O)ccc4c2[C@@]12CCN(CC1CC1)[C@H](C4)[C@]2(O)C3 [Compound 14] |  |  | 0.035 µM |  | 
